We go through 3 compounds from patent US20010025038A1, “Method of reducing craving in mammals” (priority 1997, published 2001).

For series [1] the following is noted: in vivo; cited from earlier work.
Another series concerns male CF-1 mice. The experiment in a line: cocaine induced locomotor stimulation in mice (Example 1). Particulars: for cocaine induced increase in locomotor activity: oral dose 20 minutes before cocaine sc; for locomotor activity, drug administered alone: oral dose, 8 minute period. It counts as in vivo. On the procedure:
Cocaine-produced increases in locomotor activity were blocked by D1/D5 antagonists, but not by D2/D3 antagonists unless relatively high doses were used. In this example, a selective D1/D5 antagonist, SCH 39166, and a selective D2/D3 antagonist, raclopride, were studied on cocaine induced locomotor stimulation in male CF-1 mice. The mice were given an oral dose of SCH 39166, raclopride or vehicle, followed 20 minutes later by a dose of cocaine or vehicle administered subcutaneously (sc).

For series [2] the following is noted: in vivo; cited from earlier work. The source holds these as a separate data set.
Another series concerns primate. The experiment in a line: primate model of food craving and relapse after food restriction. It counts as in vivo. An excerpt: (§1) While not wishing to be bound by any theory, D1/D5 antagonists and/or D1/D5 partial agonists may prevent dietary relapse in the treatment of obesity by blocking the rewarding effects of dopamine at the D1/D5 sites associated with cravings.

Series [3] deals with adult male Sprague-Dawley (SD) rats. The experiment in a line: NPY-stimulated food intake in rats (Example 5). It counts as in vivo. To be noted: 3 mpk ip 30 minutes before i.c.v. NPY. The procedure:
In this experiment, a baseline food intake (in grams) was measured at time intervals of 2, 4, or 24 hours following interocerebral ventricular (i.c.v.) administration of neuropeptide “Y” (NPY), a compound that stimulates an animal to consume food. A 3 μg/5 μl volume of NPY was administered to adult male Sprague-Dawley (SD) rats. On test day, three groups of rats (five rats per group) were pretreated with SCH39166 according to the following dosing schedule:
A dose of SCH39166 was injected intraperitoneally (ip). Thirty minutes later, a […] i.c.v. injection of NPY was administered. The control animals received an ip injection of the vehicle methylcellulose. Thirty minutes later, animals received NPY ([…]). A second group received 1 mpk of SCH39166 ip, and thirty minutes later received […] of NPY. A third group of animals received 3 mpk of SCH39166 ip and thirty minutes later received […] of NPY. Food intake was measured 2 hours, 4 hours, and 24 hours following NPY administration.

Series [4] concerns cocaine-dependent patients. The series is described as follows: multi-center double blind study in cocaine-dependent patients, interim analysis (Example 6). It counts as in vivo.
In series [5] the test system is cocaine-dependent patients. The description is as above. It counts as in vivo. To be noted: for Patients with Weight Loss ≧5 lb. / Weight Change: patients completing ≧28 days of treatment. On the procedure: In a multi-center double blind study an interim analysis had been conducted on approximately 160 cocaine-dependent patients who had been given daily doses of 10 mg, 25 or 100 mg of SCH39166 or of a placebo over a test period of eight weeks.
The Body Mass Index (BMI) and the patient weight were measured at the beginning and end of the study. The BMI is determined by the weight (kg)/height^2 (meters). Patients having BMI's of 20.0-24.9 are considered to be of normal weight, while patients having BMI's over 25.0 are considered to be overweight.
Table 1B indicates the percentage of patients with an initial BMI of 22 or less and the percentage of patients with a BMI of at least 26 who lost at least one unit of BMI.

A further series relates to rodent. The experiment in a line: rodent model of food craving and relapse after food restriction. It counts as in vivo.
Description: as §1

Series [6] has as its system adult male rats (strain: CD). The series is described as follows: bar press for food on fixed-ratio schedule FR30 (Example 3). It counts as in vivo. On the procedure: In this example, adult male rats (strain: CD) were trained to bar press for food on a fixed-ratio schedule of 30 (FR30). A rat had to press a bar 30 times in order to receive one 45 mg pellet of food. Each training session was 30 minutes long. The total response rate (total # of bar presses/30 minutes), i.e., the rate at which rats pressed the bar, was measured and then analyzed in animals that were initially given saline (control animals) and then doses of the D1/D5 antagonists SCH23390 or SCH39166. Each group of six animals received one dose of drug given subcutaneously in a volume of 1 ml/kg 30 minutes before the start of the session.

Another series relates to monkeys. To be noted: monkeys administered SCH 39166; cited from earlier work.
In another series the test system is healthy volunteers. The experiment in a line: crossover d-amphetamine study in healthy volunteers. It counts as in vivo. Particulars: 100 mg pretreatment, 15 mg d-amphetamine, vs placebo. The procedure:
Similarly, in a second crossover study in healthy volunteers administered 15 mg d-amphetamine following pretreatment with 100 mg SCH 39166 or placebo, attenuation of amphetamine euphoric (FIG. 12) and dysphoric (FIG. 13) effects were also observed for SCH 39166 in comparison with the placebo.

Series [7] has as its system people who previously had exhibited a cocaine addiction. It counts as in vivo, humans. The procedure:
In a double-blind study, the subjects were administered placebo 10 mg of SCH39166, 25 mg of SCH 39166, or 100 mg of SCH 39166 two hours prior to an injection of […] of cocaine. Systolic and diastolic blood pressure in the individuals was measured from 2 hours prior to cocaine injection until approximately 4 hours after cocaine administration.
In the same study, the desire to take cocaine was measured as a function of time after administration of placebo or varying doses of SCH 39166. The desire to take cocaine was measured by the Visual Analog Scale test. This test procedure is described in the British Journal of Medical Psychology, Volume 47. pp 211-218 (1974). In this test the individuals are asked to subjectively rate their feelings to take cocaine on a scale of zero-100, with zero representing no desire at all and 100 representing the strongest feelings. As may be seen in FIG. 7, the euphoric “high” following cocaine administration was lower in patients who had been pre-treated with SCH 39166, particularly a dose of 100 mg.
Even if the compounds of this invention were effective in reducing craving to abused substances or food, individuals would be unlikely to take the craving-reducing drugs unless they had tolerable side effects. […] Therefore, usage of this compound should not be adversely affected by negative opinions of the individuals to whom the drug is administered nor should it cause stimulation following administration.

The test system of the next series is ob/ob mice. The series is described as follows: food intake in genetically obese ob/ob mice (Example 4). It counts as in vivo. To be noted: 3.0 mg/kg ip, p<0.02. The procedure: Twenty four male mice of a genetically obese strain, i.e. ob/ob mice, aged 16 weeks were individually housed in Nalgene metabolism cages in a reverse light cycle room for the entire duration of the study. Mice were allowed food and water ad libitum. The mice were divided into 5 groups of 4-5 mice each based on baseline food intake and body weight. Mice were dosed intraperitoneally (ip) with vehicle, 0.003, 0.03, 0.3, or 3.0 mg/kg SCH 39166 at the onset of the dark cycle and a known mass of standard rodent chow was provided. Food consumption was measured after five hours, and another ip injection of vehicle or drug was given. Food intake was measured again at 24 hours after the initial injection. These injections and measurements were continued for 72 hours. Seventy two hour cumulative food intake was decreased 17% at 3.0 mg/kg (p<0.02).

The conditions of series [8]: up to 3 mg/k; cited from earlier work.
The conditions of series [9]: cocaine relapse model; cited from earlier work.
Setting [10] is: daily doses of 10, 25 or 100 mg over eight weeks.

On to `O=C(CCCN1CCC(O)(c2ccc(Cl)cc2)CC1)c1ccc(F)cc1` [haloperidol], for which, in series [1], the adverse side effects entry is “significant adverse side effects, such as dysphoria, restlessness or stiffness”.

Turning to `CCN1CCC[C@H]1CNC(=O)c1c(O)c(Cl)cc(Cl)c1OC` [raclopride, reference compound], in the series with male CF-1 mice, the “cocaine induced increase in locomotor activity” value was “only affected the cocaine induced increase in locomotor activity at relatively high doses” and the “locomotor activity, drug administered alone” value is on record as “dose dependent decrease in locomotor activity”. Besides, in series [2], the “block of the response-reinstating effects of food reinforcement” value was “sufficient to block the response-reinstating effects of food reinforcement”.

As to `CN1CCc2cc(Cl)c(O)cc2[C@H]2c3ccccc3CC[C@@H]21` [SCH 39166, (−)- trans-6,7,7a,8,9,13b-hexahydro-3-chloro-2-hydroxy-N-methyl-5H-benzo [d]-naphtho-[2,1-b]azepine], in the series on primate, the “relapse associated with the effects of food and environmental cues associated with food” value is reported as “can block the relapse”. Moreover, the “food intake 2 hours after NPY administration” value in series [3] was “significant decrease in food intake”. Besides, in series [4] (10 mg dose), the “% of Patients At Least One Day Since Last Cigarette” value was 57%. Besides, the “% of Patients Abstaining from Alcohol for at Least 1 day” value in series [4] (25 mg dose) amounted to 41%. Besides, in series [5] (10 mg daily), the “Patients with Weight Loss ≧1 BMI UNIT, Init. BMI ≦22” value is 2/9 (22%); the “Patients with Weight Loss ≧1 BMI UNIT, Init. BMI ≧26” value is 2/10 (20%); the “Patients with Weight Loss ≧5 lb.” value stood at 27%; the “Weight Change” value is recorded as −1.4 pounds. Besides, in [5] (10 mg dose), the “% of Patients Abstaining from Alcohol for at Least 1 day” value turned out to be 43%, the “% of Patients Abstaining from Alcohol for at Least 3 days” value is 23% and the “% of Patients At Least 3 Days Since Last Cigarette” value was determined as 27%. In [5] (25 mg daily), the “Patients with Weight Loss ≧1 BMI UNIT, Init. BMI ≦22” value is given as 2/10 (20%); the “Patients with Weight Loss ≧1 BMI UNIT, Init. BMI ≧26” value is 4/13 (30%); the “Patients with Weight Loss ≧5 lb.” value was determined as 22%; the “Weight Change” value is reported as −0.9 pounds. In series [5] (25 mg dose), the “% of Patients Abstaining from Alcohol for at Least 3 days” value was found to be 31%, the “% of Patients At Least 3 Days Since Last Cigarette” value is listed as 19% and the “% of Patients At Least One Day Since Last Cigarette” value is recorded as 53%. Moreover, in series [5] (100 mg daily), the “Patients with Weight Loss ≧1 BMI UNIT, Init. BMI ≦22” value is 1/6 (17%); the “Patients with Weight Loss ≧1 BMI UNIT, Init. BMI ≧26” value is 10/14 (71%); the “Patients with Weight Loss ≧5 lb.” value was 45%; the “Weight Change” value is −3.3 pounds. Also, in series [5] (100 mg dose), the “% of Patients Abstaining from Alcohol for at Least 1 day” value amounted to 59%, the “% of Patients Abstaining from Alcohol for at Least 3 days” value amounted to 48%, the “% of Patients At Least 3 Days Since Last Cigarette” value came to 17% and the “% of Patients At Least One Day Since Last Cigarette” value is 38%. Moreover, the “reducing weight in the obese population” value in series [5] (BMI of 26 or greater, particularly at 100 mg/day) is reported as “especially effective in reducing weight”. In [5] (setting [10]), the reducing alcohol consumption entry is listed as “effective”, the reducing cigarette smoking entry is listed as “effective”, the reducing cocaine usage entry is “did not show efficacy” and the reducing weight result is “effective”. Also, the reducing cigarette smoking entry in series [5] (low doses) is given as “efficacious in reducing cigarette smoking”. For the same compound, in the series on rodent, the “relapse associated with the effects of food and environmental cues associated with food” value is listed as “can block the relapse”. In addition, in the series on male CF-1 mice, the “cocaine induced increase in locomotor activity” value was “blocked the cocaine induced increase in locomotor activity at all doses of cocaine tested” and the “locomotor activity, drug administered alone” value is reported as “dose dependent decrease in locomotor activity”. For the same compound, the “bar press rate relative to saline-treated control animals” value in [6] (0.01 mpk subcutaneously 30 minutes before session, FR30) is listed as “significantly reduced the bar press rate”. In [6] (SCH 23390 0.003-0.03 mpk, SCH 39166 0.001-0.3 mpk, subcutaneously), the “response rate across doses” value is reported as “dose-related decrease in response rate until responses were eliminated at the highest dose”. The “increase in the dose of cocaine required to restore characteristic self-administration performances” value in the series on monkeys was no less than 3 fold. Besides, in the series on healthy volunteers, the amphetamine dysphoric effects entry is recorded as “attenuation” and the amphetamine euphoric effects result is given as “attenuation”. The “reduction in cocaine desire” value in series [7] (Visual Analog Scale, 100 mg) was “greatest reduction in cocaine desire”. Also, in [7] (Visual Analog Scale, compared with placebo), the “desire to take cocaine” value is “significantly lower”. The “dysphoric effects, such as anxiety, after cocaine administration” value in series [7] (Visual Analog Scale, pre-treated patients) was “lower”. For the same compound, the “euphoric "high" following cocaine administration” value in series [7] (Visual Analog Scale, pre-treated patients, particularly a dose of 100 mg) is recorded as “lower”. Further, in [7] (in vivo), the “"bad drug effects"” value is reported as “not significantly different from the placebo”. In series [7] (in vivo, 30 mg/kg), the “systolic and diastolic blood pressure elevations caused by cocaine” value was “did not adversely affect”. Besides, the “seventy two hour cumulative food intake decrease” value with ob/ob mice is 17%. Further, in [8], the “effect on total food intake, meal size or feeding rate” value was “no effect”. Moreover, the “attenuation of cocaine-seeking behavior” value in series [9] is on record as “able to attenuate the cocaine-seeking behavior”.
